Experimental data from PMC10025185, “A continuous in silico learning strategy to identify safety liabilities in compounds used in the leather and textile industry” (Archives of Toxicology, 2023).
Like-named read-outs stand apart in the source and are kept apart here.

System: androgen and oestrogen receptors
Experiment: ED assays of androgen and oestrogen receptors (overall experimental ED result)
Format: cell-based
Experimental: The transcriptional activation of androgen receptor (AR) assays was carried out by adapting the OECD protocol 458 (OECD [2020]).
MDA-MB-453 cells (8000 cells/well) expressing an AR luciferase reporter were seeded into 384 white plates (Greiner 781098) in culture medium (DMEM (ATCC), 10% foetal bovine serum (Sigma Aldrich), 1% penicillin–streptomycin (Sigma-Aldrich), 75 µg/ml geneticin (Gibco) and incubated overnight at 37 °C 5% CO2 and 95% humidity. After this time, the cell culture medium was discarded and replaced by assay medium (DMEM (ATCC), 0.1% foetal bovine serum (Sigma-Aldrich), and 1% penicillin–streptomycin (Sigma Aldrich)).
For studying a putative agonist effect, compounds were added to the assay plate using an Echo 550 acoustic liquid handler and incubated overnight at 37 °C 5% CO2 and 95% humidity. For studying the putative antagonist effect, compounds were added using an Echo 550 acoustic liquid handler and incubated for 15 min at 37 °C 5% CO2 and 95% humidity. Then, 1 nM 5α-dihydrotestosterone (DHT) was added, and the cell plate was incubated overnight at 37 °C, 5% CO2, and 95% humidity. After compound incubation, the cell medium was removed, 5 µl of lysis buffer 1X (Promega) was added, and the cell plate was incubated with agitation 15 min at room temperature. A freeze–thaw cycle of 10 min at −80 °C and room temperature was performed. Then 25 µl of luciferase assay reagent (Promega) was added and luminescence was determined on an EnSpire plate reader (Perkin Elmer). Data was fitted to a four-parameter sigmoidal model with Prism 5.1 (Graphpad, Inc).
The transcriptional activation of oestrogen receptor (ER) assay was carried out by adapting the OECD protocol 455 (OECD [2021]) and the method of Li et al. ([2013]).
ER luciferase reporter T47D cells (5000 cells/well) were seeded into 384 white plates (Greiner 781098) in culture medium (RPMI 1640 (Thermo Fisher Scientific 52400), 10% foetal bovine serum (Sigma Aldrich F9665), 1% penicillin–streptomycin (Sigma-Aldrich P0781), 75 µg/ml Geneticin (Gibco 10131)) and incubated overnight at 37 °C and 5% CO2. The following day, the cell culture medium was discarded and replaced by assay medium (RPMI 1640 (Thermo Fisher Scientific 52,400), 0.1% foetal bovine serum (Sigma Aldrich F9665), and 1% penicillin–streptomycin (Sigma Aldrich P0781).
The assay was performed as stated before for the AR assay using 17β-estradiol as agonist instead of DHT.
ED was assessed by transactivation in vitro assays to identify agonists and antagonists of the androgen and oestrogen receptors.
Also, the experimental group analysed the endocrine-disrupting activity for the CMR compounds.

Molecule | Experimental result | Experimental result (endocrine disruptor yes/no)
CCCCC(CC)CN (centres unmarked) [2-Ethylhexylamine] | Yes | –
CNC(=O)c1cc(Cl)ccn1.Cl [4-Chloro-N-methylpyridine-2-carboxamide hydrochloride (1:1)] | No | –
CCN(CC)c1ccc(N=Nc2c(Cl)cc([N+](=O)[O-])cc2[N+](=O)[O-])c(NC(C)=O)c1 [N-[2-[(2-chloro-4,6-dinitrophenyl)azo]-5-(diethylamino)phenyl]acetamide] | – | Yes
O=C(OCCc1ccccc1)c1ccccc1 [Phenethyl benzoate] | No | –
Reaction mass of cis-4-(isopropyl) cyclohexanemethanol and trans-4-(isopropyl) cyclohexanemethanol | – | No
